# What was measured:
# Assay type in all cases: biochemical
# [1] = Substrate (ligand) specificity of […]s; conditions: for AVE of Repeat 1-3, sensor signal with ligand (Supplementary Fig. 7 c): 1 mM ligand, Control AVE 12117.3; for fluorescence response of GECFINDER to each substrate, AVE of 3 repeats: Supplementary Fig. 3 c, substrate specificity
# Protocol: (§1) Fig. 4 Engineering ligand specificity of GrsA-PheA for generating […]s. a The selectivity-conferring code of Phe and Leu A domains. b–f Dose–response curve of purified […]s with increasing concentrations of ligands in 100 mM Tris-HCl buffer (pH=7.5). All data shown are means ± S.D. (n = 3 biologically independent samples). g A series of […] reactions was tested to show the […]’s specificity with 20 proteinogenic amino acids. The values on the heatmap represent the ΔF/F0 value normalized to each […]’s maximal ΔF/F0 value ((ΔF/F0)/maximal ΔF/F0). The concentrations of 20 amino acids were 100 μM. The color indicates the average value of three independent biological replicates after 15 min. All data shown are means ± S.D. (n = 3 biologically independent samples). Source data are provided as a Source data file.
# Ligand specificity is an important biosensors feature. Generally, the NRPS A domains have high specificity for their substrates because they are the first “gatekeeper” of NRPSs and ensure that the correct monomers are activated and thioesterified[32],[33]. Therefore, we speculated that this property would be inherited by our […]s because the ligand-binding pockets were unchanged during the […] creation process. Twenty proteinogenic amino acids were used to test the ligand specificity of […]s. […] We also investigated the dependence of […]s on Mg^2+ and ATP (Supplementary Fig. 4). […] This phenomenon corroborates with the distinct conformational changes observed in Hinge A of Nt4CL2 (Mg^2++ATP) (PDB ID: 5BSM) and Nt4CL2 (Coumaroyl-AMP) (PDB ID: 5BST) reported in the literature (Supplementary Fig. 4k), where the direction of motion in hinge A differs. […] During the determination of quantum yield, we observed that the absolute quantum yield of the […] variants ranged from 0.3 to 0.6 upon addition of the respective substrates, which show no significant difference with that reported in literature. The specific values are provided in Supplementary Table 2.
# (§2) The study conducted dose–response curve, substrate specificity, and fluorescent spectrum analyses in 100-mM Tris buffer (pH = 7.5), while pH stability experiments were performed in 100-mM Tris buffer at three different pH values (6.5, 7.5, and 8.5) at room temperature. […] protein at a concentration of 0.75 μM, various small molecule concentrations, 1 mM ATP, and 2.5 mM MgCl2 were used in the experiments. Fluorescent signals were detected using a Microplate Reader (Synergy H4, Bio Tek) at an excitation/emission wavelength of 460 nm/510 nm or 480 nm/510 nm. The dose-response curve was determined immediately after the addition of the analyte. The total duration of the measurement was 15 min, with readings taken at one-minute intervals. The dose-response curve was plotted using the fluorescence values obtained after achieving stability in the fluorescence signal. The dose-response curves were fitted using the logistic model LOGISTIC5 available in Origin 2021, which could provide a more adequate fit to asymmetric dose-response data[62],[63]. Excitation spectra were scanned from 300 to 540 nm with a step size of 5 nm, and the emission wavelength was set to 560 nm. Emission spectra were scanned from 470 to 700 nm with a step size of 5 nm, and the excitation wavelength was set to 450 nm. The thermal stability of […] was analyzed using the UNcle multifunctional protein stability analysis system. Measurements were performed in 20 mM MOPS buffer with 2 mM DTT at a sample concentration of 1 mg/mL. Absolute fluorescence quantum yields were measured using an absolute photoluminescence quantum yield spectrometer (FS5, Edinburgh).
# [2] = Dose–response curve of purified […]s with tyrosine
# Protocol: as §1, §2
# [3] = Dose–response curve of purified GECFINDERs with leucine
# Protocol: as §1, §2
smiles,measurement,setting,value
N[C@@H](Cc1ccc(O)cc1)C(=O)O [Tyr],"AVE of Repeat 1-3, sensor signal with ligand (Supplementary Fig. 7 c)",[1],11224.3
same,"fluorescence response of GECFINDER to each substrate, AVE of 3 repeats",[1],-0.01776
same,"AVE, dose-response Fig. 4 b",[2]; substrate Tyr 0.5 μM,7.517e-17
same,"AVE, dose-response Fig. 4 b",[2]; substrate Tyr 1 μM,0.02259
same,"AVE, dose-response Fig. 4 b",[2]; substrate Tyr 5 μM,0.05606
same,"AVE, dose-response Fig. 4 b",[2]; substrate Tyr 10 μM,0.0659
same,"AVE, dose-response Fig. 4 b",[2]; substrate Tyr 20 μM,0.09543
same,"AVE, dose-response Fig. 4 b",[2]; substrate Tyr 50 μM,0.2237
same,"AVE, dose-response Fig. 4 b",[2]; substrate Tyr 100 μM,0.3812
same,"AVE, dose-response Fig. 4 b",[2]; substrate Tyr 200 μM,0.5926
same,"AVE, dose-response Fig. 4 b",[2]; substrate Tyr 250 μM,0.6977
same,"AVE, dose-response Fig. 4 b",[2]; substrate Tyr 500 μM,1.046
same,"AVE, dose-response Fig. 4 b",[2]; substrate Tyr 750 μM,1.209
same,"AVE, dose-response Fig. 4 b",[2]; substrate Tyr 1000 μM,1.242
same,"AVE, dose-response Fig. 4 e",[2]; substrate Tyr 0.1 μM,0
same,"AVE, dose-response Fig. 4 e",[2]; substrate Tyr 0.2 μM,0.01578
same,"AVE, dose-response Fig. 4 e",[2]; substrate Tyr 1 μM,0.04154
same,"AVE, dose-response Fig. 4 e",[2]; substrate Tyr 2 μM,0.05025
same,"AVE, dose-response Fig. 4 e",[2]; substrate Tyr 10 μM,0.1198
same,"AVE, dose-response Fig. 4 e",[2]; substrate Tyr 20 μM,0.1707
same,"AVE, dose-response Fig. 4 e",[2]; substrate Tyr 100 μM,0.4124
same,"AVE, dose-response Fig. 4 e",[2]; substrate Tyr 200 μM,0.5306
same,"AVE, dose-response Fig. 4 e",[2]; substrate Tyr 500 μM,0.6788
same,"AVE, dose-response Fig. 4 e",[2]; substrate Tyr 1000 μM,0.7749
same,"AVE, dose-response Fig. 4 e",[2]; substrate Tyr 1500 μM,0.7754
same,"AVE, dose-response Fig. 4 e",[2]; substrate Tyr 2000 μM,0.7447
CC(C)C[C@H](N)C(=O)O [Leu],"AVE of Repeat 1-3, sensor signal with ligand (Supplementary Fig. 7 c)",[1],12093
same,"fluorescence response of GECFINDER to each substrate, AVE of 3 repeats",[1],-0.01092
same,"AVE, dose-response Fig. 4 b",[3]; substrate Leu 0.001 μM,-7.112e-17
same,"AVE, dose-response Fig. 4 b",[3]; substrate Leu 0.005 μM,0.003877
same,"AVE, dose-response Fig. 4 b",[3]; substrate Leu 0.01 μM,0.02311
same,"AVE, dose-response Fig. 4 b",[3]; substrate Leu 0.05 μM,0.04234
same,"AVE, dose-response Fig. 4 b",[3]; substrate Leu 0.1 μM,0.03637
same,"AVE, dose-response Fig. 4 b",[3]; substrate Leu 0.5 μM,0.02815
same,"AVE, dose-response Fig. 4 b",[3]; substrate Leu 1 μM,0.02962
same,"AVE, dose-response Fig. 4 b",[3]; substrate Leu 5 μM,0.0138
same,"AVE, dose-response Fig. 4 b",[3]; substrate Leu 10 μM,0.1049
same,"AVE, dose-response Fig. 4 b",[3]; substrate Leu 25 μM,0.1731
same,"AVE, dose-response Fig. 4 b",[3]; substrate Leu 50 μM,0.2052
same,"AVE, dose-response Fig. 4 b",[3]; substrate Leu 100 μM,0.2136
same,"AVE, dose-response Fig. 4 c",[3]; substrate Leu 0.5 μM,6.794e-17
same,"AVE, dose-response Fig. 4 c",[3]; substrate Leu 1 μM,0.0405
same,"AVE, dose-response Fig. 4 c",[3]; substrate Leu 2 μM,0.06186
same,"AVE, dose-response Fig. 4 c",[3]; substrate Leu 5 μM,0.1266
same,"AVE, dose-response Fig. 4 c",[3]; substrate Leu 10 μM,0.1121
same,"AVE, dose-response Fig. 4 c",[3]; substrate Leu 20 μM,0.1733
same,"AVE, dose-response Fig. 4 c",[3]; substrate Leu 50 μM,0.2857
same,"AVE, dose-response Fig. 4 c",[3]; substrate Leu 100 μM,0.4006
same,"AVE, dose-response Fig. 4 c",[3]; substrate Leu 200 μM,0.5877
same,"AVE, dose-response Fig. 4 c",[3]; substrate Leu 500 μM,0.7587
same,"AVE, dose-response Fig. 4 c",[3]; substrate Leu 750 μM,0.8241
same,"AVE, dose-response Fig. 4 c",[3]; substrate Leu 1000 μM,0.7953
same,"AVE, dose-response Fig. 4 d",[3]; substrate Leu 0.005 μM,-5.262e-17
same,"AVE, dose-response Fig. 4 d",[3]; substrate Leu 0.01 μM,0.03426
same,"AVE, dose-response Fig. 4 d",[3]; substrate Leu 0.1 μM,0.06576
same,"AVE, dose-response Fig. 4 d",[3]; substrate Leu 1 μM,0.08826
same,"AVE, dose-response Fig. 4 d",[3]; substrate Leu 5 μM,0.1792
same,"AVE, dose-response Fig. 4 d",[3]; substrate Leu 10 μM,0.2348
same,"AVE, dose-response Fig. 4 d",[3]; substrate Leu 50 μM,0.4576
same,"AVE, dose-response Fig. 4 d",[3]; substrate Leu 100 μM,0.5636
same,"AVE, dose-response Fig. 4 d",[3]; substrate Leu 200 μM,0.7427
same,"AVE, dose-response Fig. 4 d",[3]; substrate Leu 500 μM,0.9952
same,"AVE, dose-response Fig. 4 d",[3]; substrate Leu 750 μM,1.079
same,"AVE, dose-response Fig. 4 d",[3]; substrate Leu 1000 μM,1.107
same,"fluorescence response of GECFINDER, AVE of 3 repeats","[3]; Supplementary Fig. 3 a, Leu 0.001 μM",0
same,"fluorescence response of GECFINDER, AVE of 3 repeats","[3]; Supplementary Fig. 3 a, Leu 0.005 μM",0.02218
same,"fluorescence response of GECFINDER, AVE of 3 repeats","[3]; Supplementary Fig. 3 a, Leu 0.01 μM",0.03478
same,"fluorescence response of GECFINDER, AVE of 3 repeats","[3]; Supplementary Fig. 3 a, Leu 0.1 μM",0.05423
same,"fluorescence response of GECFINDER, AVE of 3 repeats","[3]; Supplementary Fig. 3 a, Leu 1 μM",0.08086
same,"fluorescence response of GECFINDER, AVE of 3 repeats","[3]; Supplementary Fig. 3 a, Leu 10 μM",0.1724
same,"fluorescence response of GECFINDER, AVE of 3 repeats","[3]; Supplementary Fig. 3 a, Leu 50 μM",0.3353
same,"fluorescence response of GECFINDER, AVE of 3 repeats","[3]; Supplementary Fig. 3 a, Leu 100 μM",0.4583
same,"fluorescence response of GECFINDER, AVE of 3 repeats","[3]; Supplementary Fig. 3 a, Leu 500 μM",0.754
same,"fluorescence response of GECFINDER, AVE of 3 repeats","[3]; Supplementary Fig. 3 a, Leu 1000 μM",0.8727
same,"fluorescence response of GECFINDER, AVE of 3 repeats","[3]; Supplementary Fig. 3 a, Leu 5000 μM",1.081
same,"fluorescence response of GECFINDER, AVE of 3 repeats","[3]; Supplementary Fig. 3 a, Leu 10000 μM",0.9665
same,"fluorescence response of GECFINDER, AVE of 3 repeats","[3]; Supplementary Fig. 3 b, Leu 0.001 μM",4.279e-17
same,"fluorescence response of GECFINDER, AVE of 3 repeats","[3]; Supplementary Fig. 3 b, Leu 0.005 μM",0.01278
same,"fluorescence response of GECFINDER, AVE of 3 repeats","[3]; Supplementary Fig. 3 b, Leu 0.01 μM",0.01795
same,"fluorescence response of GECFINDER, AVE of 3 repeats","[3]; Supplementary Fig. 3 b, Leu 0.1 μM",0.04976
same,"fluorescence response of GECFINDER, AVE of 3 repeats","[3]; Supplementary Fig. 3 b, Leu 1 μM",0.111
same,"fluorescence response of GECFINDER, AVE of 3 repeats","[3]; Supplementary Fig. 3 b, Leu 10 μM",0.3678
same,"fluorescence response of GECFINDER, AVE of 3 repeats","[3]; Supplementary Fig. 3 b, Leu 50 μM",0.7094
same,"fluorescence response of GECFINDER, AVE of 3 repeats","[3]; Supplementary Fig. 3 b, Leu 100 μM",0.9192
same,"fluorescence response of GECFINDER, AVE of 3 repeats","[3]; Supplementary Fig. 3 b, Leu 500 μM",1.615
same,"fluorescence response of GECFINDER, AVE of 3 repeats","[3]; Supplementary Fig. 3 b, Leu 1000 μM",1.882
same,"fluorescence response of GECFINDER, AVE of 3 repeats","[3]; Supplementary Fig. 3 b, Leu 5000 μM",2.296
same,"fluorescence response of GECFINDER, AVE of 3 repeats","[3]; Supplementary Fig. 3 b, Leu 10000 μM",2.333
